Measured values as given in article PMC2880318 (Immunome Research, 2010).
Where a SMILES comes first, the peptide text is derived from it.

target: purified HLA-DRB1*0101 (Homo sapiens, UniProt P01903+P01911, A100R/D57E/F55L/F60I/F76Y/I96L/L162R/M171V/P40L/Q125E/R42F/V115G/Y59C); experiment: biochemical; type: binding

| Compound | IC50 [nM] |
| --- | --- |
| CC[C@H](C)[C@H](NC(=O)[C@H](CC(C)C)NC(=O)[C@H](CCCCN)NC(=O)[C@@H](NC(=O)[C@H](C)NC(=O)[C@H](CCC(=O)O)NC(=O)[C@H](CC(C)C)NC(=O)[C@@H](NC(=O)[C@H](CC(=O)O)NC(=O)[C@H](CC(C)C)NC(=O)[C@@H](NC(=O)[C@H](CCCNC(=N)N)NC(=O)[C@@H](N)CC(=O)O)C(C)C)[C@@H](C)CC)C(C)C)C(=O)N[C@@H](CCCNC(=N)N)C(=O)N[C@@H](CCCCN)C(=O)O [MACV L391-405] (H-DRVLDILEAVKLIRK-OH) | 0.48 |
| CC[C@H](C)[C@H](NC(=O)[C@@H](N)Cc1ccccc1)C(=O)N[C@H](C(=O)N[C@@H](Cc1ccccc1)C(=O)N[C@@H](CC(C)C)C(=O)N[C@@H](CC(C)C)C(=O)N[C@@H](CC(C)C)C(=O)N[C@@H](C)C(=O)NCC(=O)N[C@@H](CCCNC(=N)N)C(=O)N[C@@H](CO)C(=O)N[C@@H](CS)C(=O)N[C@@H](CO)C(=O)N[C@@H](Cc1ccc(O)cc1)C(=O)N[C@@H](CCCCN)C(=O)O)C(C)C [WWAV GPC46-60] (H-FIVFLLLAGRSCSYK-OH) | 1.2 |
| CSCC[C@H](NC(=O)[C@H](CCC(N)=O)NC(=O)[C@@H](NC(=O)[C@H](Cc1c[nH]c2ccccc12)NC(=O)[C@@H](N)CCCCN)C(C)C)C(=O)N[C@@H](CS)C(=O)N[C@@H](CO)C(=O)N[C@@H](CCCNC(=N)N)C(=O)N[C@H](C(=O)N[C@@H](CC(C)C)C(=O)N[C@@H](CCCCN)C(=O)N[C@@H](CC(N)=O)C(=O)N[C@@H](CO)C(=O)N[C@@H](Cc1c[nH]cn1)C(=O)N[C@@H](CCC(N)=O)C(=O)O)[C@@H](C)O [JUNV L411-425] | 1.1 |
| CC[C@H](C)[C@H](NC(=O)[C@H](CC(C)C)NC(=O)[C@H](Cc1ccc(O)cc1)NC(=O)[C@@H](N)CC(=O)O)C(=O)N[C@@H](CC(C)C)C(=O)N[C@@H](CCCCN)C(=O)N[C@@H](CC(N)=O)C(=O)N[C@@H](CC(C)C)C(=O)N[C@H](C(=O)NCC(=O)N[C@@H](CC(C)C)C(=O)N[C@H](C(=O)N[C@@H](CO)C(=O)N[C@@H](C)C(=O)NCC(=O)O)C(C)C)[C@@H](C)O [MACV L866-880] | 0.21 |
| CC[C@H](C)[C@H](NC(=O)[C@@H]1CCCN1C(=O)[C@H](CO)NC(=O)[C@@H]1CCCN1)C(=O)NCC(=O)N[C@@H](Cc1ccc(O)cc1)C(=O)N[C@@H](CC(C)C)C(=O)NCC(=O)N[C@@H](CC(C)C)C(=O)N[C@@H](CC(C)C)C(=O)N[C@@H](CO)C(=O)N[C@@H](CCC(N)=O)C(=O)N[C@@H](CCCNC(=N)N)C(=O)N[C@H](C(=O)N[C@@H](CCCNC(=N)N)C(=O)O)[C@@H](C)O [LASV GPC236-250] | 0.14 |
| CC[C@H](C)[C@H](NC(=O)[C@H](CC(=O)O)NC(=O)[C@H](CC(N)=O)NC(=O)[C@H](Cc1ccccc1)NC(=O)[C@@H](NC(=O)[C@H](CCCCN)NC(=O)[C@H](CCCNC(=N)N)NC(=O)[C@H](C)NC(=O)[C@H](CS)NC(=O)[C@H](CC(N)=O)NC(=O)[C@H](CCCNC(=N)N)NC(=O)[C@@H](NC(=O)[C@H](Cc1ccccc1)NC(=O)[C@@H](N)CCSC)[C@@H](C)CC)C(C)C)C(=O)N[C@@H](CCCCN)C(=O)O [JUNV L1491-1505] | 2 |
| CC[C@H](C)[C@H](N)C(=O)N[C@@H](CO)C(=O)NCC(=O)N[C@@H](Cc1ccc(O)cc1)C(=O)N[C@@H](CC(N)=O)C(=O)N[C@@H](Cc1ccccc1)C(=O)N[C@@H](CO)C(=O)N[C@@H](CC(C)C)C(=O)N[C@@H](CO)C(=O)N[C@@H](C)C(=O)N[C@@H](C)C(=O)N[C@H](C(=O)N[C@@H](CCCCN)C(=O)N[C@@H](C)C(=O)NCC(=O)O)C(C)C [GTOV NP236-250] | 0.12 |
| CC[C@H](C)[C@H](N)C(=O)N[C@@H](CCC(N)=O)C(=O)N[C@@H](CC(C)C)C(=O)N[C@H](C(=O)N[C@@H](Cc1ccccc1)C(=O)N[C@@H](CO)C(=O)N[C@@H](CO)C(=O)N[C@@H](CCSC)C(=O)N[C@H](C(=O)N[C@@H](CC(N)=O)C(=O)N1CCC[C@H]1C(=O)N[C@@H](CC(C)C)C(=O)N[C@H](C(=O)N[C@H](C(=O)N[C@H](C(=O)O)[C@@H](C)O)[C@@H](C)CC)C(C)C)[C@@H](C)CC)C(C)C [GTOV L1826-1840] (H-IQLVFSSMINPLVIT-OH) | 0.23 |
| CC[C@H](C)[C@H](NC(=O)[C@H](Cc1c[nH]cn1)NC(=O)[C@H](CCCNC(=N)N)NC(=O)[C@H](Cc1c[nH]cn1)NC(=O)[C@@H](NC(=O)[C@@H]1CCCN1C(=O)[C@H](Cc1ccccc1)NC(=O)CNC(=O)[C@@H](NC(=O)[C@H](CC(C)C)NC(=O)[C@H](Cc1c[nH]cn1)NC(=O)[C@H](CC(C)C)NC(=O)[C@@H](N)Cc1ccccc1)C(C)C)[C@@H](C)O)C(=O)N[C@@H](CCCNC(=N)N)C(=O)NCC(=O)O [SABV GPC441-455] (H-FLHLVGFPTHRHIRG-OH) | 0.09 |
| CC(C)C[C@H](NC(=O)CNC(=O)[C@H](CC(C)C)NC(=O)[C@H](CO)NC(=O)[C@@H](NC(=O)[C@H](CC(C)C)NC(=O)[C@H](C)NC(=O)[C@H](CCC(N)=O)NC(=O)[C@@H](NC(=O)[C@@H](NC(=O)[C@H](CC(N)=O)NC(=O)[C@@H](N)CC(N)=O)C(C)C)C(C)C)[C@@H](C)O)C(=O)N[C@@H](CC(C)C)C(=O)N[C@@H](Cc1ccc(O)cc1)C(=O)N[C@H](C(=O)O)[C@@H](C)O [GTOV NP191-205] | 0.29 |
| CC[C@H](C)[C@H](NC(=O)[C@H](CS)NC(=O)[C@H](CC(=O)O)NC(=O)[C@@H](N)CCSC)C(=O)N[C@H](C(=O)N[C@@H](Cc1ccccc1)C(=O)N[C@@H](CCC(=O)O)C(=O)N[C@@H](CO)C(=O)N[C@@H](C)C(=O)N[C@@H](CO)C(=O)N[C@@H](CCCCN)C(=O)N[C@@H](C)C(=O)N[C@@H](CCCNC(=N)N)C(=O)N[C@@H](CC(C)C)C(=O)N1CCC[C@H]1C(=O)O)[C@@H](C)CC [LCMV NP521-535] | 4.4 |
| CC(C)[C@H](NC(=O)[C@H](C)NC(=O)[C@H](CCCCN)NC(=O)[C@@H]1CCCN1C(=O)[C@H](CCCCN)NC(=O)[C@@H](NC(=O)[C@H](C)NC(=O)[C@H](Cc1c[nH]c2ccccc12)NC(=O)[C@H](Cc1ccccc1)NC(=O)[C@H](Cc1ccccc1)NC(=O)[C@H](CC(N)=O)NC(=O)[C@H](CCCCN)NC(=O)[C@@H](N)CC(N)=O)C(C)C)C(=O)N[C@@H](CCCNC(=N)N)C(=O)N[C@@H](CCC(N)=O)C(=O)O [JUNV L1711-1725] | 0.06 |
| CC[C@H](C)[C@H](NC(=O)[C@H](Cc1ccc(O)cc1)NC(=O)[C@@H](NC(=O)[C@H](CC(=O)O)NC(=O)[C@H](CCCNC(=N)N)NC(=O)[C@@H](NC(=O)[C@H](CCCNC(=N)N)NC(=O)[C@H](CCC(N)=O)NC(=O)[C@H](CO)NC(=O)[C@H](CC(C)C)NC(=O)[C@H](CC(C)C)NC(=O)CNC(=O)[C@H](CC(C)C)NC(=O)[C@@H](N)Cc1ccc(O)cc1)[C@@H](C)O)[C@@H](C)CC)C(=O)N[C@@H](CO)C(=O)O [LASV GPC241-255] | 0.29 |
| CC(C)C[C@H](NC(=O)[C@H](Cc1ccccc1)NC(=O)[C@H](CC(C)C)NC(=O)[C@@H](NC(=O)[C@@H](NC(=O)[C@@H](NC(=O)[C@@H](N)Cc1ccccc1)[C@@H](C)O)[C@@H](C)O)[C@@H](C)O)C(=O)N[C@@H](Cc1c[nH]cn1)C(=O)N[C@@H](CC(C)C)C(=O)N[C@H](C(=O)NCC(=O)N[C@@H](Cc1ccccc1)C(=O)N1CCC[C@H]1C(=O)N[C@H](C(=O)N[C@@H](Cc1c[nH]cn1)C(=O)O)[C@@H](C)O)C(C)C [SABV GPC436-450] (H-FTTTLFLHLVGFPTH-OH) | 0.92 |
| CC(C)C[C@H](NC(=O)[C@H](CO)NC(=O)[C@H](CCCNC(=N)N)NC(=O)[C@H](CCC(=O)O)NC(=O)[C@H](Cc1ccccc1)NC(=O)[C@H](CC(N)=O)NC(=O)[C@H](CC(C)C)NC(=O)[C@H](Cc1c[nH]cn1)NC(=O)[C@@H](NC(=O)[C@H](CCCCN)NC(=O)[C@@H](N)CO)[C@@H](C)O)C(=O)N[C@@H](CCCCN)C(=O)N[C@@H](C)C(=O)N[C@@H](Cc1ccccc1)C(=O)N[C@@H](Cc1ccccc1)C(=O)O [MACV GPC251-265] | 1.7 |
| CC(C)C[C@H](NC(=O)[C@H](C)NC(=O)[C@H](CC(C)C)NC(=O)[C@H](Cc1ccccc1)NC(=O)[C@@H](NC(=O)[C@H](Cc1ccccc1)NC(=O)[C@@H](N)Cc1ccccc1)C(C)C)C(=O)N[C@@H](C)C(=O)NCC(=O)N[C@@H](CCCNC(=N)N)C(=O)N[C@@H](CO)C(=O)N[C@@H](CS)C(=O)N[C@H](C(=O)N[C@@H](CCC(=O)O)C(=O)N[C@@H](CCC(=O)O)C(=O)O)[C@@H](C)O [JUNV GPC46-60] | 0.23 |
| CC[C@H](C)[C@H](NC(=O)[C@H](CC(=O)O)NC(=O)[C@H](CC(C)C)NC(=O)[C@H](CC(C)C)NC(=O)[C@H](CCCNC(=N)N)NC(=O)[C@H](CC(=O)O)NC(=O)[C@H](CC(N)=O)NC(=O)[C@@H](NC(=O)[C@H](CC(C)C)NC(=O)[C@H](CCSC)NC(=O)[C@H](CC(C)C)NC(=O)[C@H](CCSC)NC(=O)[C@H](CCC(N)=O)NC(=O)CNC(=O)[C@@H](N)C(C)C)C(C)C)C(=O)O [JUNV L381-395] | 0.21 |
| CC[C@H](C)[C@H](N)C(=O)N1CCC[C@H]1C(=O)N[C@H](C(=O)N[C@@H](CCC(N)=O)C(=O)N[C@@H](CC(C)C)C(=O)N[C@@H](CC(C)C)C(=O)N1CCC[C@H]1C(=O)N[C@@H](CC(N)=O)C(=O)N[C@H](C(=O)N[C@@H](CC(C)C)C(=O)N[C@H](C(=O)N[C@@H](Cc1ccccc1)C(=O)N[C@@H](CCC(N)=O)C(=O)N[C@@H](C)C(=O)N[C@@H](CCCCN)C(=O)O)C(C)C)[C@@H](C)O)[C@@H](C)CC [GTOV NP541-555] (H-IPIQLLPNTLVFQAK-OH) | 0.25 |
